Measured values published in ChEMBL document CHEMBL1201862, “PubChem BioAssay data set” (2004).
Active and inactive are the calls of the source.

Experiments:
[1] = Fluorescence-based cell-based high throughput dose response assay for inhibitors of the interaction of nucleotide-binding oligomerization domain containing 2 (NOD2) and the receptor-interacting serine-threonine kinase 2 (RIPK2).; format: functional; conditions: Homo sapiens
[2] = NIH-3T3 fibroblast cytotoxicity, dose response, cytotoxicity control, cell-based, fluorescence, Alamar Blue, secondary assay (AID 2327); format: functional;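 also: NIH-3T3 mouse fibroblasts cultured with fluconazole at 8 µg/mL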
[3] = target: Benomyl/methotrexate resistance protein (Candida albicans, UniProt P28873); experiment: CaMdr1 efflux pump inhibitor potency, dose response, singleplex, Cherry Pick1 hits (AID 588608); format: functional
Chain of Benomyl/methotrexate resistance protein (P28873 whole entry): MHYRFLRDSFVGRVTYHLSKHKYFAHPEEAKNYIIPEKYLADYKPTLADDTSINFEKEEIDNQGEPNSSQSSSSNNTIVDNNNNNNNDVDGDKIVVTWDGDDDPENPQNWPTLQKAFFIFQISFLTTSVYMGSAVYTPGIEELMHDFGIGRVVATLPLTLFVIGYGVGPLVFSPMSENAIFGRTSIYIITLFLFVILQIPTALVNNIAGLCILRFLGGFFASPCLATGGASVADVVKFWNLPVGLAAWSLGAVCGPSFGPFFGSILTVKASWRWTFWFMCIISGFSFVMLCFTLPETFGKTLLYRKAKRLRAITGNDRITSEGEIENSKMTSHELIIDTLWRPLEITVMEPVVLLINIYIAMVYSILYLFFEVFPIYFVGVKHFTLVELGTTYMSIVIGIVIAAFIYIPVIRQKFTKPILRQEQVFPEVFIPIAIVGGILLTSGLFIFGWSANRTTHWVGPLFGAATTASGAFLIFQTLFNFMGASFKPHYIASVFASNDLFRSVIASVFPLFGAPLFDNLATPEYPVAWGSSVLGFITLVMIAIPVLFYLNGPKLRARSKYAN

[4] = target: T1, Short transient receptor potential channel 4 (Mus musculus, UniProt Q9QUQ5); experiment: mouse TRPC4 channel inhibitors, dose response, cell-based, HEK293 TRPC4/mu-opioid, Fluo-4 calcium (AID 434942); format: functional;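 also: potency of inhibitors blocking the TRPC4 calcium response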
T1 sequence (Q9QUQ5 whole entry): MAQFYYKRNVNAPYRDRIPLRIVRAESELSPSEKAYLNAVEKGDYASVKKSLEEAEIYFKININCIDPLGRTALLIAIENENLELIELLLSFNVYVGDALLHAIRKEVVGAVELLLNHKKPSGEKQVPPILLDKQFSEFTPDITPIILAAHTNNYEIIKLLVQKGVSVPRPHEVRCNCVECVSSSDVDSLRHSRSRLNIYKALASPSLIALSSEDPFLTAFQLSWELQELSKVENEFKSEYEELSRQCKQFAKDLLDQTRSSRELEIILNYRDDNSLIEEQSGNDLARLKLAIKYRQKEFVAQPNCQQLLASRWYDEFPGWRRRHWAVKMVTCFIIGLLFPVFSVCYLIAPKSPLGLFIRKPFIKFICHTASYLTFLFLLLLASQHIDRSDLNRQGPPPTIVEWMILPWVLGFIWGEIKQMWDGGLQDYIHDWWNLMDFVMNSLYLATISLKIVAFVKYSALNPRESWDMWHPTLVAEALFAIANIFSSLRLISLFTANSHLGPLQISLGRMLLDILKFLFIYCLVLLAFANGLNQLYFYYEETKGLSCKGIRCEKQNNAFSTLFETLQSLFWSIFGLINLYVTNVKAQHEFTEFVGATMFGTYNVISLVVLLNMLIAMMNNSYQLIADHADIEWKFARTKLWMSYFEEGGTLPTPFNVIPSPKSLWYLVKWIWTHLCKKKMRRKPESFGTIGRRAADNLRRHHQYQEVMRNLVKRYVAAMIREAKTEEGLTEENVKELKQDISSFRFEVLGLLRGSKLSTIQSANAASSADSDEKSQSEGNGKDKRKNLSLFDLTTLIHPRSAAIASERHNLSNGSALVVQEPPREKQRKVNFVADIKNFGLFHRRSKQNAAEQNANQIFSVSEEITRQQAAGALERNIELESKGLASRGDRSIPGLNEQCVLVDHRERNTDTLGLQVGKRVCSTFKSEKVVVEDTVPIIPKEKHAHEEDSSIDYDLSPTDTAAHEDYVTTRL

[5] = target: T2, Ubiquitin-conjugating enzyme E2 N (Homo sapiens, UniProt P61088); format: functional
T2 sequence (P61088 whole entry): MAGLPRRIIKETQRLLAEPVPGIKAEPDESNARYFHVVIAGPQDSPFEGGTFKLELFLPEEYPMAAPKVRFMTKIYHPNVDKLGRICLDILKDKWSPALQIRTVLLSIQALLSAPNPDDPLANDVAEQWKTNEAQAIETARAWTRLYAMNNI

[6] = inhibitors of intracellular T. cruzi replication, confirmation, NIH3T3 host cells, beta-gal luminescence (AID 2044); format: functional, cell-based;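 also: intracellular parasites grown in NIH/3T3 mouse fibroblasts as host cells; luminescent beta-galactosidase reporter signal from transgenic T. cruzi replicating inside host cells; inhibitors lower the luminescence signal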
[7] = C. albicans growth with fluconazole, confirmation, fluorescence, retest (AID 2467); format: functional, cell-based
[8] = cytotoxicity toward NIH3T3 fibroblasts, dose response, counter-screen, cell-based, ATP luminescence, mouse fibroblasts (AID 2010); format: functional;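 also: cells exposed to compound for about 90 hours before reading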
[9] = target: Tyrosine-protein phosphatase non-receptor type 5 (Homo sapiens, UniProt P54829); experiment: STEP phosphatase inhibitors, confirmation, biochemical, fluorescence intensity, uHTS hits (AID 602372); format: functional; conditions: read-out: IC50_Mean
Chain of Tyrosine-protein phosphatase non-receptor type 5 (P54829 whole entry): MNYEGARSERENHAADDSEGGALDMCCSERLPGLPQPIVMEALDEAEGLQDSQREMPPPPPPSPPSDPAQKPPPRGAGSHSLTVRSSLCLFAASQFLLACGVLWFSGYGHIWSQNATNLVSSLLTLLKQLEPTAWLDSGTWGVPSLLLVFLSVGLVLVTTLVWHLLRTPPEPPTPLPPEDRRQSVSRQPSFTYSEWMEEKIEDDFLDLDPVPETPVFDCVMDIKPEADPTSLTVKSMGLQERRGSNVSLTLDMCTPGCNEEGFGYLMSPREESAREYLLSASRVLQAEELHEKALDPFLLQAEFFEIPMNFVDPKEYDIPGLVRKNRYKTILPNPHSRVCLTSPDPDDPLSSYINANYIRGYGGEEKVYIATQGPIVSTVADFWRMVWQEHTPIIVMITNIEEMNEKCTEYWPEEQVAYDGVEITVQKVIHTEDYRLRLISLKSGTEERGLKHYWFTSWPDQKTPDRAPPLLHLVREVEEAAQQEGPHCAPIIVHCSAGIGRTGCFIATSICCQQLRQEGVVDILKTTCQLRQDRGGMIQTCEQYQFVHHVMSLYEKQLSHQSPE

[10] = target: Tyrosine-protein phosphatase non-receptor type 11 (Homo sapiens, UniProt Q06124); experiment: SHP2 phosphatase inhibition, dose response, selectivity assay for STEP inhibitor project, biochemical (AID 602367); format: functional; conditions: read-out: IC50_Mean
Chain of Tyrosine-protein phosphatase non-receptor type 11 (Q06124 whole entry): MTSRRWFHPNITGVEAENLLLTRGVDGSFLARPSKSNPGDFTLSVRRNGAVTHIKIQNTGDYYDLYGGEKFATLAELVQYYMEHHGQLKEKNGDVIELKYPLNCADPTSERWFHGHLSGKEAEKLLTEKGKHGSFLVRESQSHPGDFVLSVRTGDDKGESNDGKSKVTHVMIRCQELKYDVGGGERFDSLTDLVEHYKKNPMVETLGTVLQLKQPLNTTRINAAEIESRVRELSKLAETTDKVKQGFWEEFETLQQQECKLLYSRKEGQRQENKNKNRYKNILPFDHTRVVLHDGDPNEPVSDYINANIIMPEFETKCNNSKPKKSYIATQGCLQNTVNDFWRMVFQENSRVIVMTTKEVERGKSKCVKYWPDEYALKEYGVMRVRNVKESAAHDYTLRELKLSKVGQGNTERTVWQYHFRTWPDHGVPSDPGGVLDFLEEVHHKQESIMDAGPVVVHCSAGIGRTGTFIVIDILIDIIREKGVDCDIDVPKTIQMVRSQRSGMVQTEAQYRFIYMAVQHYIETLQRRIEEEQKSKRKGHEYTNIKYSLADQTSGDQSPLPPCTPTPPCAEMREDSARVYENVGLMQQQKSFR

[11] = target: Dual specificity protein phosphatase 3 (Homo sapiens, UniProt P51452); experiment: VHR phosphatase inhibition, dose response, selectivity assay for STEP inhibitor project, biochemical (AID 602374); format: functional; conditions: read-out: IC50_Mean
Chain of Dual specificity protein phosphatase 3 (P51452 whole entry): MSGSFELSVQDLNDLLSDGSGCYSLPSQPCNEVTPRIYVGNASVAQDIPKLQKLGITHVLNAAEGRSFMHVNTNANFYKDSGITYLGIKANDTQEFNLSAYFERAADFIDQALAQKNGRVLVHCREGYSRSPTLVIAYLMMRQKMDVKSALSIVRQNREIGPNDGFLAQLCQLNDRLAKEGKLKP

[12] = target: Potassium voltage-gated channel subfamily KQT member 2 (Rattus norvegicus, UniProt O88943); experiment: KCNQ2 potassium channel inhibitors, dose response, cell-based, automated electrophysiology, set II, rat KCNQ2 (AID 588637); format: functional
Chain of Potassium voltage-gated channel subfamily KQT member 2 (O88943 whole entry): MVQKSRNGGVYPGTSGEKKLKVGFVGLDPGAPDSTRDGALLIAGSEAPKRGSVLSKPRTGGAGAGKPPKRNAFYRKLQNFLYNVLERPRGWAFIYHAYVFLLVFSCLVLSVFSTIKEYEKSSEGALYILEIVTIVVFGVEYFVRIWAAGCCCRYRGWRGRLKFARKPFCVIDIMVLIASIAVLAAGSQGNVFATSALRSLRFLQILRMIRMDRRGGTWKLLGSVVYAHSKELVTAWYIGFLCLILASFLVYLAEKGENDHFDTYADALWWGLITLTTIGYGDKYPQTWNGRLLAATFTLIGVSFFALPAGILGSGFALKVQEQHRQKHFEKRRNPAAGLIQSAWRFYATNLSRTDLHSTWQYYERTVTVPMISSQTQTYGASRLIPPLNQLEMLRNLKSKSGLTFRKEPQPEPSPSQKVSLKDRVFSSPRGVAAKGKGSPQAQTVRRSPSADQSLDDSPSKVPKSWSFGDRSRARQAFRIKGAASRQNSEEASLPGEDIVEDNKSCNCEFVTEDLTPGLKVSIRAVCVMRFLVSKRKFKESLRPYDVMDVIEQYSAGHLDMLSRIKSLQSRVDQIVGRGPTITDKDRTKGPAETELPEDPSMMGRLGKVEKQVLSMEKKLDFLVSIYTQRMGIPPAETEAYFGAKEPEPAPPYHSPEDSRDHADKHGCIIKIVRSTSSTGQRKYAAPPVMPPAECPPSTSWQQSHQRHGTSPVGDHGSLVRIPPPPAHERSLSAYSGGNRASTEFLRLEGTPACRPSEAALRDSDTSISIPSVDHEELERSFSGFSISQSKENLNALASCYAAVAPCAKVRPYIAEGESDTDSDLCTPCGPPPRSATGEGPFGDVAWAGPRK

[13] = target: T3, Low molecular weight phosphotyrosine protein phosphatase (Homo sapiens, UniProt P24666); format: functional; conditions: read-out: IC50_Mean
T3 sequence (P24666 whole entry, the tested form may be a part): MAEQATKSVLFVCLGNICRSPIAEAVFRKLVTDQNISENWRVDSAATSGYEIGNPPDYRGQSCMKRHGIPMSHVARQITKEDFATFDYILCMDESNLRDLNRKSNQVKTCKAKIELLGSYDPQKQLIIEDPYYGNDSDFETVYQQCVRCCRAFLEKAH

[14] = target: T4, Tyrosine-protein phosphatase non-receptor type 22 (Homo sapiens, UniProt Q9Y2R2); experiment: LYP phosphatase inhibition for selectivity, dose response, selectivity assay for LMPTP inhibitor project, biochemical, fluorescence, LYP catalytic domain (AID 652006); format: functional; conditions: read-out: IC50_Mean
T4 sequence (Q9Y2R2 whole entry): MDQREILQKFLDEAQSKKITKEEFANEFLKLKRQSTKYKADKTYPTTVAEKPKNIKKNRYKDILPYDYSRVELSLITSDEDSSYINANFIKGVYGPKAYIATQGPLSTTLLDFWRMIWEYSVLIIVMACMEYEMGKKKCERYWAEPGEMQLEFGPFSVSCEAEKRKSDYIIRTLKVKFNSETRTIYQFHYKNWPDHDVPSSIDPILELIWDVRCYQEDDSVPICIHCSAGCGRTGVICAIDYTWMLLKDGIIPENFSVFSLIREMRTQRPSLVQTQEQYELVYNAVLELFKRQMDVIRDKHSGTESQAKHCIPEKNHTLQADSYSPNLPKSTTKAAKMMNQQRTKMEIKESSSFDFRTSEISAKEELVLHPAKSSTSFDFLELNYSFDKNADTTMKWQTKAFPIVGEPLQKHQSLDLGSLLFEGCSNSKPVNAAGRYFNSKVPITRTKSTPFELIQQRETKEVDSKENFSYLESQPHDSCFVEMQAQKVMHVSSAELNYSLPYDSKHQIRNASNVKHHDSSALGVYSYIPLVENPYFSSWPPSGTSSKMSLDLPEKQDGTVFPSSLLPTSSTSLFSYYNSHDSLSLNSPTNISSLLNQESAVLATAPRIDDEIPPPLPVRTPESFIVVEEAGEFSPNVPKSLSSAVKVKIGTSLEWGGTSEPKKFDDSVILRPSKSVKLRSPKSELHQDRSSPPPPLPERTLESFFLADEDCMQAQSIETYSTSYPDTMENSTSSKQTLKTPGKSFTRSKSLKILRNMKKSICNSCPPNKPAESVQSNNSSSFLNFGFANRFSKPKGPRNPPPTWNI

[15] = target: T3, Low molecular weight phosphotyrosine protein phosphatase; format: functional; conditions: read-out: IC50_Mean; remark: listed apart in the source
[16] = target: T5, Carboxy-terminal domain RNA polymerase II polypeptide A small phosphatase 1 (Homo sapiens, UniProt Q9GZU7); experiment: inhibitors of CTDSP1, concentration-response testing, biochemical assay, absorbance-based, actives from ultra-high-throughput screening (AID 540297); format: functional
T5 sequence (Q9GZU7 whole entry): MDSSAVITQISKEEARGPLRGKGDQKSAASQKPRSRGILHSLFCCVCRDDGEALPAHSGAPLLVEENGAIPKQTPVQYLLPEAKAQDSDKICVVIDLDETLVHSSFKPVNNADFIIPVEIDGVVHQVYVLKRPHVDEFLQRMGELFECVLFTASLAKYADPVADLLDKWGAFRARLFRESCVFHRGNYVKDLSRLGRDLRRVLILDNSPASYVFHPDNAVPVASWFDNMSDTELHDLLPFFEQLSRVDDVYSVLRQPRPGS

[17] = MDA-MB-231 cell growth inhibition, dose response, cytotoxicity control for RAD54 inhibitor project, CellTiter-Glo luminescence, cherry-pick (AID 651692); format: functional, cell-based
[18] = target: T6, DNA repair and recombination protein RAD54-like (Homo sapiens, UniProt Q92698); experiment: inhibitors of human RAD54 branch migration, confirmation, biochemical, fluorescence, cherry-picked samples, dose series (AID 651657); format: functional
T6 sequence (Q92698 whole entry): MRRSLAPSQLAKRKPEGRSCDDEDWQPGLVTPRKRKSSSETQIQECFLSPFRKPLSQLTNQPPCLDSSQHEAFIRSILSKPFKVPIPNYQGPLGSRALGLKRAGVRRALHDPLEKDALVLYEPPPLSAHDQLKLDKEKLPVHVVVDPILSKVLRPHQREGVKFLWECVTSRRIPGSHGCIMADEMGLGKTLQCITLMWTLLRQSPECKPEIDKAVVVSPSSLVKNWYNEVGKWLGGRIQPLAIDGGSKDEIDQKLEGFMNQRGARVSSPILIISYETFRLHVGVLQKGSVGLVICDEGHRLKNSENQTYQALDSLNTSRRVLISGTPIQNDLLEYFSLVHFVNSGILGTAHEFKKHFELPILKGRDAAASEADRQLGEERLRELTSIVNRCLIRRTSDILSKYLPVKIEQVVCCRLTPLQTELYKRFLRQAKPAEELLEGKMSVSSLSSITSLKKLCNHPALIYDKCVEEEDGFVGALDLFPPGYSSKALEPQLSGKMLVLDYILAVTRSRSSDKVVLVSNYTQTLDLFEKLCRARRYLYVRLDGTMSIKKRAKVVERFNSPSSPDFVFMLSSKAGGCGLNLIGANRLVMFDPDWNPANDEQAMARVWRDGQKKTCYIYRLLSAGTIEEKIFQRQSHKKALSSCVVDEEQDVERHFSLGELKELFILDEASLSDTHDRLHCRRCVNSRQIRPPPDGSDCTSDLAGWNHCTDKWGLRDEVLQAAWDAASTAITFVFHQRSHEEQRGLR

[19] = target: Bcl-2-related protein A1 (Mus musculus, UniProt Q07440); format: functional;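 also: confirmatory dose–response counterscreen on Bfl-1, used to check hits from a UBC13 polyubiquitin inhibitor campaign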
Chain of Bcl-2-related protein A1 (Q07440 whole entry): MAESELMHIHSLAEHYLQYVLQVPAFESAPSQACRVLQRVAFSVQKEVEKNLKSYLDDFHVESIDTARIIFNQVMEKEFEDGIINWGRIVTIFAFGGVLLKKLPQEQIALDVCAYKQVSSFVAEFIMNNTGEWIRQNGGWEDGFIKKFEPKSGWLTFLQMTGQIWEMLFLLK

[20] = target: T2, Ubiquitin-conjugating enzyme E2 N; format: functional; remark: listed apart in the source
[21] = test system: Streptococcus sp. 'group A'; experiment: growth inhibition of control SK(-) GAS strain, dose response, counter-screen for streptokinase expression inhibitor project, luminescence, kanamycin, BacTiterGlo, confirmation (AID 1900); format: functional, organism-based
[22] = test system: Streptococcus; experiment: Group A Streptococcus viability loss, dose response, counter-screen for streptokinase expression inhibitor project, luminescence, BacTiterGlo (AID 1915); format: functional, organism-based;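 also: potency for reduction of bacterial viability or growth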

Cn1cnc([N+](=O)[O-])c1S(=O)(=O)Oc1cccc2ccccc12
IC50 [1]: 3.4 µM (active)

O=C(C[n+]1cc(-c2ccc(Cl)c(Cl)c2)n2c1CCC2)N1c2ccccc2Sc2ccccc21
EC50 [2]: > 150 µM (inactive)
EC50 [3]: 14 nM (active)
EC50 [4]: 1.88 µM (active)
IC50 [5]: > 20 µM (inactive)
EC50 [6]: 845 nM (active)
EC50 [7]: 1.1 µM (active)
EC50 [8]: > 60 µM (not active)

Cc1nn(C)cc1/C=N/NC(=S)Nc1ccccc1
IC50 [9]: 26.5 µM (inactive)
IC50 [10]: 3.15 µM (active)
IC50 [11]: 1.22 µM (active)

COc1cc2cc(C(c3nnnn3Cc3ccc(F)cc3)N3CCCCCC3)c(O)nc2cc1OC (stereo not given)
IC50 [12]: 4.96 µM (active)

O=C(CCN1C(=O)/C(=C/c2ccc3c(c2)OCO3)SC1=S)Nc1ccc(C(=O)O)cc1
IC50 [13]: 8.74 µM (active)
IC50 [14]: 12.9 µM (active)
IC50 [15]: 16.2 µM (active)
IC50 [16]: 2.3 µM (active)

CN(C)CCCn1c(SCC(=O)Nc2nc(-c3cccc(Br)c3)cs2)nc2ccccc2c1=O
AC50 [17]: 13.9 µM (active)
AC50 [18]: 95.9 µM (active)
IC50 [19]: 13.1 µM (active)
IC50 [20]: 5.29 µM (active)
IC50 [5]: 5.58 µM (active)
EC50 [21]: 3.17 µM (active)
EC50 [6]: 1660 nM (active)
EC50 [8]: 4.52 µM (active)
EC50 [22]: 6.99 µM (active)
